{
  "source": "patent US5030715A",
  "about": "“Novel aminopimelic acids” (Roussel Uclaf, priority 1987, dated 1991)",
  "key": {"human monocytes [1]": {"test_system": "human monocytes", "assay": "Stimulation of monocyte cells: Interleukine-1 (IL-1) test on culture supernatants", "type": "cell-based", "conditions": "for direct effect on human monocytes, production of an IL-1 activity in the culture supernatants: with 5 g of product", "protocol": "(§1) The mononucleus cells of the circulating blood of normal donors were separated according to the standard technique described by Boyum using a Ficoll gradient. After washing, the mononuclear cells were incubated at 37° C. for one hour at the rate of 5.10^6 monocytes (NSE^+ cells) per ml of culture medium using 5 ml per culture flask. The culture medium used in this experiment was made up of RPMI 1640 with the addition of antibiotics and Hepes buffer. After one hour, the non-adherent cells were removed by washing the flasks with medium previously heated to 37° C. and the adherent cells composed mostly of monocytes (>90%) were put back in culture in complete RPMI medium without serum in the presence of various quantities of products under test, which had previously been put in solution in a buffer (Dulbecco) without Ca^2+ or Mg^2+. The culture was continued for 24 or 48 hours and the supernatants of the cells were then removed, centrifuged, separated into equal lots and held either at -80° C. or at -20° C. The supernatants of the culture were replaced in the flasks by the same amount of apyrogenous distilled water to dissolve the cells. The lysate was recovered, separated into equal lots and also kept at -20° C.\nThis test was described for the first time by Gery et al in 1972 [Gery et al 1972. Potentiation of the T lymphocyte response to mitogens. II. The cellular source of potentiating mediator (s) J. Exp. Med., 136-143]. It is based on the co-mitogen action of IL-1 in the presence of an antigen (mimicked by phytohemaglutinine in the test) on the thymocytes of mice. 1.5×10^6 thymocytes of mice C3H/HeJ (from the C.S.E.A.L. of Orleans) were put in culture for three days in the presence of various dilutions of supernatants and of cell lysates which may contain IL-1 activity and of PHA-P Wellcome (1 ug/ml) in culture plates with 96 flat bottomed wells, in a final volume of 200 ul of medium composed of RPMI 1640 containing in addition to antibiotics (penicillin 1 U/ml - streptomycin 1000 U/ml) of Hepes buffer, 1 mM of glutamine, 2 mM 5% of calf serum and […] of 2-mercapto ethanol. After 68 hours of culture, 1 μCi of tritiated thymidine was added to each well (^3 H-methyl thymidine, CEA Saclay, TMM79A specific activity 1 Ci/mM=37 GBq/mM) and the radioactivity incorporated by the cells was evaluated after the cultures had been filtered on Skatron type semi-automatic collecting apparatus and the filters had been counted in a liquid scintillation counter (Beckman). The results were expressed by the difference between the impulses per minute incorporated by the cultures in the presence of supernatants and the impulses per minute incorporated by the control cultures."}, "human monocytes [2]": {"test_system": "human monocytes", "assay": "Stimulation of monocyte cells: Tumor Necrosis Factor (TNF) test on culture supernatants", "type": "cell-based", "conditions": "for direct effect on human monocytes, production of a TNF activity in the culture supernatants: with 5 g of product", "protocol": "as §1\nThe TNF activity is shown by the toxicity of this factor on the L-929 target cells (sub-clone alpha) and the technique was sensitized by adding D actinomycin in the test. The L cells were distributed at a rate of 2×10^4 cells per well of a flat-bottomed microplate in 100 μl of RPMI 1640 medium enriched with 5% of calf serum, glutamine, Hepes buffer and antibiotics. After 24 hours, various dilutions of the supernatants under test were added in a volume of 100 μl, as well as a dose of D actinomycin of 1 μg/ml. After 24 hours of culture, the quantity of undissolved cells was evaluated by coloring the plates with crystal violet and measuring the optical density of the different wells on a multiscan reader. RESULTS: The product of Example 9 stimulated the monocytes and their production of IL-1 and TNF. Furthermore, there was synergy between the products and the gamma Interferon."}, "[3]": {"test_system": "Enterobacter cloacae 1321E", "assay": "Antibacterial activity in vitro, agar diffusion in Davis Mingioli medium", "type": "cell-based", "conditions": "product at 25 mg/l, 24 hours at 37° C., read-out: inhibition zones observed (diameter in mm)", "protocol": "(§2) The antibacterial activity of the products was determined by the method of diffusion in a Davis Mingioli medium with 1% of agar added to it. The agars used were poured into Petri dishes at 48° C., after inoculating with […] with the bacterial strain under test. The inocula came from a culture made 24 hours earlier in a Davis Mingioli broth. After the agars had hardened, the aqueous solutions of the products being studied were introduced into wells (9 mm) hollowed in the medium with a punch. The inhibition zones observed (diameter in mm) were measured after incubation for 24 hours at 37° C."}, "[4]": {"test_system": "Salmonella typhimurium MZ11", "assay": "Antibacterial activity in vitro, agar diffusion in Davis Mingioli medium", "type": "cell-based", "conditions": "Salmonella enterica, product at 25 mg/l, 24 hours at 37° C., read-out: inhibition zones observed (diameter in mm)", "protocol": "as §2"}, "Strain IP 52 145": {"test_system": "Strain IP 52 145", "assay": "Antibacterial activity in vivo, protection of infected mice", "design": "species or system Swiss female mice", "conditions": "5 mg/kg intramuscular 24 hours before intravenous infection with strain IP 52 145", "protocol": "Swiss female mice weighing from 18 to 20 g (Charles River Cobs noninbred CDl) were used for this experiment with each group comprising 20 animals. The various products were put in solution in apyrogenous physiological serum to obtain concentrations of 1-10-100 mcg/mouse or: 50-500-5000 mcg/kg.\nThe lyophilized strain was re-hydrated with a few drops of soja trypcase broth (BioMerieux) and a tube of 10 ml of soja trypcase broth was inoculated with the suspension obtained and cultivated for 18 hours in an incubator at 37° C. Tubes of preserving agar (Pasteur) were inoculated with this culture by central stabing. After 18 hours of culture in an incubator at 37° C., the tubes were kept at 22° C.\nA tube of soja trypcase broth was inoculated from a preserving agar and cultivated for 18 hours in an incubator at 37° C. Inclined soja trypcase agars were inoculated from this culture. […] The germ concentration was evaluated by counting with a Coulter Counter. […] The quantity of revivable germs injected was checked by spreading on Petri dishes containing trypcase agar.\nAdministration was done with an intramuscular injection in a volume of 0.05 ml/mouse 24 hours before infection. […] Where a clear increase in survival could not be detected after 21 days of observation, an average survival time (AST) was calculated for each group. […]"}, "Escherichia Coli 078": {"test_system": "Escherichia Coli 078", "assay": "Antibacterial activity in vitro, agar diffusion in Davis Mingioli medium", "type": "cell-based", "conditions": "COLI078, product at 25 mg/l, 24 hours at 37° C., read-out: inhibition zones observed (diameter in mm)", "protocol": "as §2"}, "Providencia sp. DU48": {"test_system": "Providencia sp. DU48", "assay": "Antibacterial activity in vitro, agar diffusion in Davis Mingioli medium", "type": "cell-based", "conditions": "product at 25 mg/l, 24 hours at 37° C., read-out: inhibition zones observed (diameter in mm)", "protocol": "as §2"}, "[5]": {"conditions": "human blood monocytes, culture 24 or 48 hours"}, "[6]": {"conditions": "in the presence of gamma Interferon (10^3 U/ml; CHU--IFN--g)"}},
  "data": [
    {"smiles": "NC(CC=CCC(=O)O)C(=O)O", "note": "(centres unmarked) [Example 5, 6-amino-3-heptenedioic acid]", "values": [
      {"measurement": "direct effect on human monocytes, production of an IL-1 activity in the culture supernatants", "setting": "human monocytes [1]", "result": "showed a direct effect"},
      {"measurement": "direct effect on human monocytes, production of a TNF activity in the culture supernatants", "setting": "human monocytes [2]", "result": "showed a direct effect"}
    ]},
    {"smiles": "C[C@H](N)C(=O)NC(CC=CCC(=O)O)C(=O)O", "note": "(stereo partly drawn) [Example 6, 6-(L-alanylamino)-3-heptenedioic acid]", "values": [
      {"measurement": "zone of inhibition at 25 µg/mL", "setting": "[3]", "result": 10, "unit": "mm"},
      {"measurement": "zone of inhibition at 25 µg/mL", "setting": "[4]", "result": 24, "unit": "mm"}
    ]},
    {"smiles": "CCCCCCCCCCCCCCCCCC(=O)N[C@@H](C)C(=O)N[C@H](CCC(=O)NC(CC=CCC(=O)[O-])C(=O)[O-])C(=O)O.[Na+].[Na+]", "note": "(some centres unmarked) [Example 8]", "values": [
      {"measurement": "protection, expressed in AST (average survival time) or in survival at the end of 21 days of observation", "setting": "Strain IP 52 145", "result": "particularly significant protection"}
    ]},
    {"smiles": "NCCCC[C@H](N)C(=O)NC(CC=CCC(=O)O)C(=O)O", "note": "(stereo partly drawn) [Example 9, 6-(L-lysylamino)-3-heptenedioic acid]", "values": [
      {"measurement": "stimulation of the monocytes and their production of IL-1", "setting": "human monocytes [1]; [5]", "result": "stimulated"},
      {"measurement": "production of monokines (IL-1) in the presence of gamma Interferon", "setting": "human monocytes [1]; [6]", "result": "at least increased the production"},
      {"measurement": "direct effect on human monocytes, production of an IL-1 activity in the culture supernatants", "setting": "human monocytes [1]", "result": "showed a direct effect"},
      {"measurement": "stimulation of the monocytes and their production of TNF", "setting": "human monocytes [2]; [5]", "result": "stimulated"},
      {"measurement": "production of monokines (TNF) in the presence of gamma Interferon", "setting": "human monocytes [2]; [6]", "result": "at least increased the production"},
      {"measurement": "direct effect on human monocytes, production of a TNF activity in the culture supernatants", "setting": "human monocytes [2]", "result": "showed a direct effect"}
    ]},
    {"smiles": "C[C@H](N)C(=O)NC(C=CCCC(=O)O)C(=O)O", "note": "(stereo partly drawn) [Example 13, 2-(L-alanylamino)-3-heptenedioic acid]", "values": [
      {"measurement": "zone of inhibition at 25 µg/mL", "setting": "Escherichia Coli 078", "result": 17.5, "unit": "mm"},
      {"measurement": "zone of inhibition at 25 µg/mL", "setting": "Providencia sp. DU48", "result": 22, "unit": "mm"},
      {"measurement": "zone of inhibition at 25 µg/mL", "setting": "[4]", "result": 20, "unit": "mm"}
    ]}
  ]
}
